According to article PMC6350621, “Small-molecules that covalently react with a human prolyl hydroxylase – towards activity modulation and substrate capture” (Chemical Communications (Cambridge, England), 2018):

Key:
Type in all cases: binding
[1] = biological target: T1, PHD2 truncated at residue 410 (Homo sapiens, UniProt Q9GZT9); test: Non-denaturing ESI-MS crosslinking, 410 truncate; details: equimolar FeSO4 and compound, 3 h, 37 °C, 200 V
T1 construct: PHD2 constructs truncated at residues 402, 410, 414 and 418; Both the 418 (PHD2_181–418); His6 (N, cleaved yes); made in house; host or cells: bacterial culture (2x TY, kanamycin, IPTG)
T1 sequence (Q9GZT9 181-410): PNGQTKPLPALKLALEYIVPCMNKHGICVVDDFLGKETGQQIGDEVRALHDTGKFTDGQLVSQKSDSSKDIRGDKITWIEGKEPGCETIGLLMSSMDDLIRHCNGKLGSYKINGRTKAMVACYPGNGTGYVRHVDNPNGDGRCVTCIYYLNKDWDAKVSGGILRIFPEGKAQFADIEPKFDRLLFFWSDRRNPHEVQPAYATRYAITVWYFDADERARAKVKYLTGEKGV
Description: The site of crosslinking of 3 was investigated using protein variants. First, 3 was incubated with C-terminal truncated PHD2 (PHD2_181–402) and a loop deletion variant (deletion of residues 238–250, PHD2Δ). […] Thus, 3 was incubated with PHD2 constructs truncated at residues 402, 410, 414 and 418. […] Crosslinking experiments with PHD2 R411M implied that R411 is not directly involved in crosslinking (Fig. S11, ESI ^†).
Fig. S8 Temperature dependence of the rate of crosslinking of 3 with PHD2. PHD2 (20 µM) was incubated with equimolar Fe(II) and 3 in buffer (50 mM Tris, 150 mM NaCl, pH 7.5) at 4, 20 and 37 °C. The ratio of crosslinking after 1, 2, and 4 h was determined by ESI-MS under denaturing conditions (n = 2), error bars represent 1 standard deviation.
Fig. S9 Ratio of crosslinked PHD2.3 before evaluation of catalytic activity. Labelled peaks correspond to: (A): PHD2, […]
Fig. S10 Non-denaturing ESI-MS analysis of (a) PHD2 and its C-terminal truncations (b) PHD2181-418; (c) PHD2181-414;
(d) PHD2181-410; (e) PHD2181-402 in the presence of equimolar amounts of FeSO4 and 3 after 3 hours incubation at 37 °C in ammonium acetate (15 mM, pH 7.5) at a sample cone voltage of 200V. Peaks present: (A): PHD2.Fe; (B): PHD2181-

PHD2 K408I = biological target: T2, PHD2 K408I (Homo sapiens, UniProt Q9GZT9, K408I); test: Non-denaturing ESI-MS crosslinking, K408I variant; details: equimolar FeSO4 and compound, 3 h, 37 °C
T2 construct: PHD2_181–426 (hereafter PHD2); His6 (N, cleaved yes); made in house; host or cells: bacterial culture (2x TY, kanamycin, IPTG); QuikChange mutagenesis
T2 sequence (Q9GZT9 181-426 K408I): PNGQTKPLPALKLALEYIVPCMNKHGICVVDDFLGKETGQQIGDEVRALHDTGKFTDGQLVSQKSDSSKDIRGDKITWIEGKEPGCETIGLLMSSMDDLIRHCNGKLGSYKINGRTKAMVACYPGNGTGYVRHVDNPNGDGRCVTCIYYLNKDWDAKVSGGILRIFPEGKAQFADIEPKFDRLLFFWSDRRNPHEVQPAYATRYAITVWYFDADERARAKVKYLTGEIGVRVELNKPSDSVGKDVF
Description: The site of crosslinking was investigated by trypsin digest and LC-MS/MS. The imine adducts formed by 1/2 were fixed by reduction using sodium cyanoborohydride (Fig. S12, ESI ^†). Modified protein samples were digested (trypsin) and analysed by ‘nano LC-MS/MS’.[19] In all 3 samples, modification by the respective inhibitor was identified on the trypsin-derived peptide 403[…]411, and localised to K408 (Fig. 3B and Fig. S13, ESI ^†).
Fig. S11 Non-denaturing ESI-MS data of K408I PHD2 in the presence of equimolar amounts of FeSO4 and the Michael acceptor 3 after 3 hours incubation at 37 °C in ammonium acetate (15 mM, pH 7.5) at a sample cone voltages of (a) 80V or (b) 200V. Non-denaturing ESI-MS data of […] PHD2 in the presence of equimolar amounts of FeSO4 and 3 after 3 hours incubation at 37 °C in ammonium acetate (15 mM, pH 7.5) at a sample cone voltage of (c) 80V or (d) 200V. The peaks observed are consistent with the following complexes: (A): K408I.Fe; (B): non-covalent K408I.Fe.3 complex, (C): covalent K408I.Fe.3 complex; (D): R411M.Fe; (E): covalent R411M.Fe.3 complex.

PHD2_181–426 = biological target: T3, PHD2_181–426 (Homo sapiens, UniProt Q9GZT9); test: Non-denaturing ESI-MS of covalent adduct formation with PHD2; details: equimolar PHD2/Fe(II), 37 °C
T3 construct: PHD2_181–426 (hereafter PHD2); His6 (N, cleaved yes); made in house; host or cells: bacterial culture (2x TY, kanamycin, IPTG)
T3 sequence (Q9GZT9 181-426): as the sequence (Q9GZT9 181-426 K408I) above, with I228K counted along it
Description: The interaction of the ligands with PHD2_181–426 (hereafter PHD2) was examined by non-denaturing ESI-MS, using cone voltage variation to distinguish covalent and non-covalent complexes (non-covalent interactions are typically preserved at cone voltages of 50–80 V, and dissociated at 200 V).[16]–[18] Aldehydes 1 and 2 were incubated with equimolar PHD2 and Fe(II) (37 °C; 5 or 20 min). […] Without Fe(II), neither covalent nor non-covalent adducts were observed, implying covalent conjugation involves active site Fe(II) binding, with subsequent condensation.
Fig. S2 A) Schematic representation of the assigned species formed on addition of 1 or 2 to PHD2. The results support initial non-covalent binding of the inhibitors to PHD2.Fe(II) to form B. Subsequently, condensation of a lysine residue with the aldehyde forms the covalent adduct C. (B) and (C): Non-denaturing ESI-MS data support the covalent crosslinking of 1/2 with PHD2. Conditions: PHD2 (20 µM) was incubated (37 °C, 5 or 20 min) with equimolar FeSO4 and 1 or 2, and the resulting mixtures were analysed by ESI-MS (cone voltage: 50 V or 200 V). Labelled peaks correspond to: A: Unmodified PHD2.Fe. B: Non-covalent adduct PHD2.Fe.2. C: Covalent adduct PHD2.Fe.1/2.
Fig. S6 The α,β-unsaturated amide 3 can covalently modify PHD2. (A) Schematic representation of the adducts formed upon incubation of 3 with PHD2.
PHD2. PHD2 (20 µM) was incubated (37 °C, 5 min, 1 h or 2 h) with equimolar FeSO4 and 3 or 4 before analysis by ESI-MS (cone voltage: 50 V or 200 V). Labelled peaks correspond to the following assigned complexes: A: unmodified PHD2.Fe; B: the non-covalent PHD2.Fe.3 adduct; C: the covalent PHD2.Fe.3 adduct.
2. Experimental procedures
1.1.1 Non-denaturing mass spectrometry1
Apo PHD2 was desalted using a Bio-Spin 6 Column (Bio-Rad, Hemel Hempstead, UK) into 15 mM ammonium acetate (pH 7.5). The stock solution was diluted with the same buffer to a final concentration of 100 μM. FeSO4·7H2O was dissolved in 20 mM HCl at a concentration of 100 mM. This solution was then diluted with MilliQ purified water to give a final working concentration of 100 μM. The protein was mixed with the Fe(II) solution and the inhibitor solution to give final concentrations of 20 μM PHD2, 20 μM Fe(II), and 20 μM inhibitor. The resultant solution was incubated for the appropriate time (specified in the text) at 37 […]
(5 min or 20 min) at 37 °C. After incubation, the samples were immediately analysed by ESI-MS. Data were acquired using a Q-TOF mass spectrometer (Q-TOF micro, Micromass, Altrincham, UK) interfaced with a Nanomate (Advion Biosciences, Ithaca, NY, USA) with a chip voltage of 1.70 kV and a delivery pressure 0.5 psi (1 psi = […]). The sample cone voltage was typically 200 or 50 V with a source temperature of 40 °C and with an acquisition/scan time of 10s/1s. Sample acquisition was performed in positive ion mode in the range of 2000-4000 m/z. The pressure at the interface between the atmospheric source and the high vacuum region was fixed at 6.30 mbar. External instrument calibration was achieved using sodium iodide.

crosslinking with 410 truncate [1]: Crosslinking did not occur
apparent covalent modification of PHD2 K408I (PHD2 K408I): < 10%
conversion to the covalent adduct after 1 h (PHD2_181–426; 1 h): 1/3
conversion to the covalent adduct after 2 h (PHD2_181–426; 2 h): 2/3
Compound: C=CC(=O)Nc1cccc(C(=O)NCC(=O)O)c1O [compound 3]
